# Measurements reported in ChEMBL document CHEMBL4311943, “3-[(1S,2S,3R)-2,3-Difluoro-1-hydroxy-7-methylsulfonylindan-4-yl]oxy-5-fluorobenzonitrile (PT2977), a Hypoxia-Inducible Factor 2α (HIF-2α) Inhibitor for the Treatment of Clear Cell Renal Cell Carcinoma” (J Med Chem, 2019).
# The source made the active and inactive calls. The calls are words filed in the database; no cut-off is given here.
# What was measured:
# [1] = target: Muscarinic acetylcholine receptor M2 (Homo sapiens) (UniProt P08172); test: Activity at human M2 receptor at 10 uM
# [2] = target: CX3C chemokine receptor 1 (Homo sapiens) (UniProt P49238); test: Activity at human CX3CR1 receptor at 10 uM
# [3] = Clearance in CD-1 mouse at 3 mg/kg, iv by UPLC-MS analysis; format: ADME, organism-based; settings: in vivo
# [4] = Plasma concentration in patient with advanced solid tumor at 20 mg, po administered once daily measured on day 15 after 24 hrs; format: ADME, organism-based; settings: human
# [5] = Plasma concentration in patient with advanced solid tumor at 120 mg, po administered once daily measured on day 15 after 24 hrs; format: ADME, organism-based; settings: human
# [6] = target: 5-hydroxytryptamine receptor 2B (Homo sapiens) (UniProt P41595); test: Activity at human 5-HT2B receptor at 10 uM
# [7] = target: Protein kinase C alpha type (Homo sapiens) (UniProt P17252); test: Activity at human PKCalpha at 10 uM
# [8] = target: Histamine H3 receptor (Homo sapiens) (UniProt Q9Y5N1); test: Activity at human H3 receptor at 10 uM
# [9] = target: Neuromedin-U receptor 1 (Homo sapiens) (UniProt Q9HB89); test: Activity at human NMU1 receptor at 10 uM
# [10] = Half life in patient with advanced solid tumor at 240 mg, po administered once daily measured on day 15; format: ADME, organism-based; settings: human, in vivo
# [11] = Plasma concentration in patient with advanced solid tumor at 160 mg, po administered once daily measured on day 15 after 24 hrs; format: ADME, organism-based; settings: human
# [12] = target: Sphingosine 1-phosphate receptor 3 (Homo sapiens) (UniProt Q99500); test: Activity at human S1P3 receptor at 10 uM
# [13] = Dose normalized AUClast in CD-1 mouse at 10 mg/kg, po administered via gavage by UPLC-MS analysis; format: ADME, organism-based; settings: in vivo
# [14] = Half life in Beagle dog at 1 mg/kg, iv by UPLC-MS analysis; format: ADME, organism-based, Canis lupus familiaris; settings: in vivo
# [15] = Protein binding in human plasma at 10 uM measured after 4 hrs by LC-MS/MS analysis; format: ADME, cell-free; settings: read-out: PPB (converted)
# [16] = target: Sodium channel protein type 5 subunit alpha (Homo sapiens, UniProt Q14524); test: Activity at human Nav1.5 at 10 uM
# [17] = Volume of distribution at steady state in Sprague-Dawley rat at 1 mg/kg, iv by UPLC-MS analysis; format: ADME, organism-based; settings: in vivo, read-out: Vdss
# [18] = target: Kappa-type opioid receptor (Homo sapiens) (UniProt P41145); test: Activity at human kappa opioid receptor at 10 uM
# [19] = target: Orexin/Hypocretin receptor type 1 (Homo sapiens) (UniProt O43613); test: Activity at human OX1 receptor at 10 uM
# [20] = Dose normalized AUClast in monkey at 5 mg/kg, po administered via gavage by UPLC-MS analysis; format: ADME, organism-based, Macaca mulatta; settings: rhesus monkey, in vivo
# [21] = target: Gonadotropin-releasing hormone receptor (Homo sapiens) (UniProt P30968); test: Activity at human GNRH at 10 uM
# Homo sapiens [22] = species: Homo sapiens; test: Activity at human Proteinase activated receptor at 10 uM
# [23] = target: C5a anaphylatoxin chemotactic receptor 1 (Homo sapiens) (UniProt P21730); test: Activity at human C5a receptor at 10 uM
# [24] = Volume of distribution at steady state in CD-1 mouse at 3 mg/kg, iv by UPLC-MS analysis; format: ADME, organism-based; settings: in vivo, read-out: Vdss
# [25] = target: Motilin receptor (Homo sapiens) (UniProt O43193); test: Activity at human MTLR receptor at 10 uM
# [26] = target: Substance-P receptor (Homo sapiens) (UniProt P25103); test: Activity at human NK1 receptor at 10 uM
# [27] = target: A-type voltage-gated potassium channel KCND3 (Homo sapiens, UniProt Q9UK17); test: Activity at human Kv4.3 at 10 uM
# [28] = target: Neuromedin-K receptor (Homo sapiens) (UniProt P29371); test: Activity at human NK3 receptor at 10 uM
# [29] = target: C-X-C chemokine receptor type 1 (Homo sapiens) (UniProt P25024); test: Activity at human CXCR1 receptor at 10 uM
# [30] = Clearance in Sprague-Dawley rat at 1 mg/kg, iv by UPLC-MS analysis; format: ADME, organism-based; settings: in vivo
# [31] = target: Potassium voltage-gated channel subfamily KQT member 1 (Homo sapiens, UniProt P51787); test: Activity at human KCNQ1 at 10 uM
# [32] = target: Cannabinoid receptor 1 (Homo sapiens) (UniProt P21554); test: Activity at human CB1 receptor at 10 uM
# [33] = target: Urotensin-2 receptor (Homo sapiens) (UniProt Q9UKP6); test: Activity at human GPR14 receptor at 10 uM
# Homo sapiens [34] = species: Homo sapiens; test: Activity at human PKA at 10 uM
# [35] = target: Vasopressin V2 receptor (Homo sapiens) (UniProt P30518); test: Activity at human V2 receptor at 10 uM
# [36] = target: D(1B) dopamine receptor (Homo sapiens) (UniProt P21918); test: Activity at human D5 receptor at 10 uM
# Cytochrome P450 1A2 = Cytochrome P450 1A2 (Homo sapiens, UniProt P05177); test: Inhibition of CYP1A2 in human liver microsomes up to 50 uM using phenacetin as substrate measured after 10 mins in presence of NADPH by LC-MS/MS analysis; format: ADME
# [37] = target: Cannabinoid receptor 2 (Homo sapiens) (UniProt P34972); test: Activity at human CB2 receptor at 10 uM
# [38] = target: Endothelin receptor type B (Homo sapiens) (UniProt P24530); test: Activity at human ETB receptor at 10 uM
# UGT2B17 = target: T1, UGT2B17 (Homo sapiens, UniProt O75795); test: Substrate activity at UGT2B17 in human intestinal microsomes assessed as enzyme-mediated glucuronidation by measuring Km at 2 to 1000 uM preincubated for 5 mins followed by UDPGA addition and measured after 60 mins by LC-MS/MS analysis; format: ADME, Intestine
# T1 sequence (O75795 whole entry): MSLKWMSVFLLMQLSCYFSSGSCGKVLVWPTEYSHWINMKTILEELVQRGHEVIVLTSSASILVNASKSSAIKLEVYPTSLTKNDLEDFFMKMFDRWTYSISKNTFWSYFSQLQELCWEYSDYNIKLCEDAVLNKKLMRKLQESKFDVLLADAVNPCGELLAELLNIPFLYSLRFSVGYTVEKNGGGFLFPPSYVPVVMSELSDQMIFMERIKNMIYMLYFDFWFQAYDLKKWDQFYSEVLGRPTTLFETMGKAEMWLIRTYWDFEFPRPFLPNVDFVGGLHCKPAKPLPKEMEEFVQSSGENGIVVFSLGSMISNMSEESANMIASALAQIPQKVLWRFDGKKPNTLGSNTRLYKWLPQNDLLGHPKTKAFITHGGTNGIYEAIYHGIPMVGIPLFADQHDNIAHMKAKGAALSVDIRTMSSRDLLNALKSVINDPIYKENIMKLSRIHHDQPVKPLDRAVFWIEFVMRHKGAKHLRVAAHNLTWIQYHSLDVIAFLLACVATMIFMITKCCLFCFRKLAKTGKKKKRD
# C-X-C chemokine receptor type 1 (Homo sapiens), sequence (P25024 whole entry): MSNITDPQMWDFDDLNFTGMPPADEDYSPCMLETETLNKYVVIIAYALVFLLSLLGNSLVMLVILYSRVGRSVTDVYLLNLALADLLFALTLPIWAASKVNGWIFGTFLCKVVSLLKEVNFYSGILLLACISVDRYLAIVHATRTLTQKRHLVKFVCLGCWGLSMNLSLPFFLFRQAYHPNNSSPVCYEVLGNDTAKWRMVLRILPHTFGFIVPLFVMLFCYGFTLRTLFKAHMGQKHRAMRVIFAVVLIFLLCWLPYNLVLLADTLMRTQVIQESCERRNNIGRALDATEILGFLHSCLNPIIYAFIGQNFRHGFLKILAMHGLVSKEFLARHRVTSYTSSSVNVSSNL
# Endothelin receptor type B (Homo sapiens), sequence (P24530 whole entry): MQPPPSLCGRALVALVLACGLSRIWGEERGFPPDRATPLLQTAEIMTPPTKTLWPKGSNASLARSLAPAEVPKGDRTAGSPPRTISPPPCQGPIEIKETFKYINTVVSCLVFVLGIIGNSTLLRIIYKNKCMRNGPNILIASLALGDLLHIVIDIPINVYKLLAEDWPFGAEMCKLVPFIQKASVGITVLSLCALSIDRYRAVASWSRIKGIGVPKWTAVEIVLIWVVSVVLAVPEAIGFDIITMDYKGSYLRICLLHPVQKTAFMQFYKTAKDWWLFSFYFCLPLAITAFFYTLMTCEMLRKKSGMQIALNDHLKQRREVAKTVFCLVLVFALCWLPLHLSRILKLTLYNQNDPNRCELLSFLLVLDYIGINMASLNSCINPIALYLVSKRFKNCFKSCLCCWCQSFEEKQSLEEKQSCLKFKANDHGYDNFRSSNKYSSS
# Sphingosine 1-phosphate receptor 3 (Homo sapiens), sequence (Q99500 whole entry): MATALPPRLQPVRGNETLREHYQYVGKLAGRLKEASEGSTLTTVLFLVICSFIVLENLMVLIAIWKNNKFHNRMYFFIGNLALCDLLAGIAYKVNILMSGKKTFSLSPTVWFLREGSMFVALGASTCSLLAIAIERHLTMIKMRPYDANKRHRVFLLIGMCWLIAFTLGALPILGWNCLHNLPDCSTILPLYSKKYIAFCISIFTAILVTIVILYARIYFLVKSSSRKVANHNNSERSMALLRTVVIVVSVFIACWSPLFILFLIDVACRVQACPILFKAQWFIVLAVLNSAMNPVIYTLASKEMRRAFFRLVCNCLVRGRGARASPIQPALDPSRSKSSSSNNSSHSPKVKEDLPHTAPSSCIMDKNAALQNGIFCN
# Cannabinoid receptor 2 (Homo sapiens), sequence (P34972 whole entry): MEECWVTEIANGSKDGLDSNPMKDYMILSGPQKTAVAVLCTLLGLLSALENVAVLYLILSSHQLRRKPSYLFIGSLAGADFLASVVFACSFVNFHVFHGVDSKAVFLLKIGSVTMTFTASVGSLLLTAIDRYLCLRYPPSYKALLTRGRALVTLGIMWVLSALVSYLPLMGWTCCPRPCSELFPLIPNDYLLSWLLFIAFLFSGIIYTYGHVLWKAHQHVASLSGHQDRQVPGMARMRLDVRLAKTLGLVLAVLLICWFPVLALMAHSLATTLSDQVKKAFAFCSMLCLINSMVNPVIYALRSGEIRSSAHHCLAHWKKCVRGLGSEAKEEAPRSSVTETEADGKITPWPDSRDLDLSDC
# Muscarinic acetylcholine receptor M2 (Homo sapiens), sequence (P08172 whole entry): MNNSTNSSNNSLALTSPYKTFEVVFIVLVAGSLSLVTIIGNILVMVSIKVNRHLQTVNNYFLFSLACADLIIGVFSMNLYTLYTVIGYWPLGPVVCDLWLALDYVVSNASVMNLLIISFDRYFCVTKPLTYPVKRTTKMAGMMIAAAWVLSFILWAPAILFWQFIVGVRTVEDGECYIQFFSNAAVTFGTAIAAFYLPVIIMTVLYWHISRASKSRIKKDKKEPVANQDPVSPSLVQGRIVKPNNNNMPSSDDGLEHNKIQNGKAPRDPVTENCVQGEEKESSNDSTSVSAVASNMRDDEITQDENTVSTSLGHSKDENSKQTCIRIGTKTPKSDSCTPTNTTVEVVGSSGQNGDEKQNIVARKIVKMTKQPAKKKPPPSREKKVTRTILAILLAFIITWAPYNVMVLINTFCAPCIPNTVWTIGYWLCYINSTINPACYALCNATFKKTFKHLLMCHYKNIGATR
# Potassium voltage-gated channel subfamily KQT member 1, sequence (P51787 whole entry): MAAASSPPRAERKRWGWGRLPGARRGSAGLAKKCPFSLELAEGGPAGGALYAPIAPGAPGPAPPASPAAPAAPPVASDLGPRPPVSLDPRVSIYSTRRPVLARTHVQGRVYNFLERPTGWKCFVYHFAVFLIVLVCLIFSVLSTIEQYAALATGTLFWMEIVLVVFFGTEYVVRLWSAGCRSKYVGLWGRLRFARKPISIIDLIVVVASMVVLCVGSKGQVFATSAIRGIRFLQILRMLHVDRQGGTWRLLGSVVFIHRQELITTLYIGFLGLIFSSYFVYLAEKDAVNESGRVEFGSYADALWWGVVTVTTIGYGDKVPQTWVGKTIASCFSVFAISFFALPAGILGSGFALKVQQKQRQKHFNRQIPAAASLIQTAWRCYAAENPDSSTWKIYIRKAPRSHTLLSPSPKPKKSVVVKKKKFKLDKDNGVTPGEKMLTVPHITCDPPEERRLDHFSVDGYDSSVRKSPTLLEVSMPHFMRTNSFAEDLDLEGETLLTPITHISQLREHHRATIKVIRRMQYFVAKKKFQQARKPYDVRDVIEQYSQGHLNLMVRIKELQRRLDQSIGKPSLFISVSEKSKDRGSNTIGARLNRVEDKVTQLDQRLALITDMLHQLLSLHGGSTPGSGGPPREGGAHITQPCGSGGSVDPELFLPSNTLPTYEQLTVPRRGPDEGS
# D(1B) dopamine receptor (Homo sapiens), sequence (P21918 whole entry): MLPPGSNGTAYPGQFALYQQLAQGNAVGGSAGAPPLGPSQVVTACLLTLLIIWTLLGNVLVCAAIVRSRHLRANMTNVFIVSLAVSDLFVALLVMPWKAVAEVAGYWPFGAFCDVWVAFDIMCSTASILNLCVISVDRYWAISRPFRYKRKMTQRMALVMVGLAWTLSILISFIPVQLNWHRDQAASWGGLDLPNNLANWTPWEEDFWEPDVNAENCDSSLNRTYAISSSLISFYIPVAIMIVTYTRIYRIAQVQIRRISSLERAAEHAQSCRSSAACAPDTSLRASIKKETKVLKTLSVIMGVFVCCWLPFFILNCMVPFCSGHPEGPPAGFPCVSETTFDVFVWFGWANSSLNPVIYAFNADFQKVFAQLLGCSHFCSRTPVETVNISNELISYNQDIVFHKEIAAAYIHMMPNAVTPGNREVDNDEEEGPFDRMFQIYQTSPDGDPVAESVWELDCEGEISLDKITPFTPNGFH
# Urotensin-2 receptor (Homo sapiens), sequence (Q9UKP6 whole entry): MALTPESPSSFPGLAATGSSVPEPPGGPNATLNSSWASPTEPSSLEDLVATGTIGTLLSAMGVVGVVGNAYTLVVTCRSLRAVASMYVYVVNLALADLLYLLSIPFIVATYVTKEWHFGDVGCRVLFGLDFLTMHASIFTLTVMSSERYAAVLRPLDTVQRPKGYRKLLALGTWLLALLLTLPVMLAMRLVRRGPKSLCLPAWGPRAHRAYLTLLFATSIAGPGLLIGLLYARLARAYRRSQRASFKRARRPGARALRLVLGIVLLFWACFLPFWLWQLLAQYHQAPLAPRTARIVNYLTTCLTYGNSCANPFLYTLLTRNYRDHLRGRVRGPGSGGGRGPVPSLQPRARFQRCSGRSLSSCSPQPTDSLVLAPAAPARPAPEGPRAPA
# Motilin receptor (Homo sapiens), sequence (O43193 whole entry): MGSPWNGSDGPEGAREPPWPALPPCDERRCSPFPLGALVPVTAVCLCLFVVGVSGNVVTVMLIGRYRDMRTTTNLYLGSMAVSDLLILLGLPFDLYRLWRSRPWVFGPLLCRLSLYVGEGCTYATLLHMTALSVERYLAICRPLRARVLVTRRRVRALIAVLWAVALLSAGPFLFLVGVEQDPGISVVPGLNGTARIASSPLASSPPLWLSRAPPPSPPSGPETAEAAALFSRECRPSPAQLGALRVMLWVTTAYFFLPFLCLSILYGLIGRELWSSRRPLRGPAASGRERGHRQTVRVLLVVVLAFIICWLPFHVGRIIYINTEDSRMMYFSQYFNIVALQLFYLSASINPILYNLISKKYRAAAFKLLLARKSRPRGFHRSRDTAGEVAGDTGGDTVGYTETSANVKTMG
# Cytochrome P450 1A2, sequence (P05177 whole entry): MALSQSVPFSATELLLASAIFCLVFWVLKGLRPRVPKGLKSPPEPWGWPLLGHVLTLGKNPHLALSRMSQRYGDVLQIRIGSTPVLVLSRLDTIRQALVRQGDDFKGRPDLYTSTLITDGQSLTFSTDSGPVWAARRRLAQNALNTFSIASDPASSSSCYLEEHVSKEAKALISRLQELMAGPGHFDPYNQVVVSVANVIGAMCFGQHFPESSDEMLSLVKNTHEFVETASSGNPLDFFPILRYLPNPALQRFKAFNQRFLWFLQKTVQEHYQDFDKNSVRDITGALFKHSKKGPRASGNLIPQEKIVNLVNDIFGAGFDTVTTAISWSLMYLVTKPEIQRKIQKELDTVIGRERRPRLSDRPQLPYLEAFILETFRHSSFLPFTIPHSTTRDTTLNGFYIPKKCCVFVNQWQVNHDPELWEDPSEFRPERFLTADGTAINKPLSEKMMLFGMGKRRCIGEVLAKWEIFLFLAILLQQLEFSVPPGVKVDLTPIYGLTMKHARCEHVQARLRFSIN
# 5-hydroxytryptamine receptor 2B (Homo sapiens), sequence (P41595 whole entry): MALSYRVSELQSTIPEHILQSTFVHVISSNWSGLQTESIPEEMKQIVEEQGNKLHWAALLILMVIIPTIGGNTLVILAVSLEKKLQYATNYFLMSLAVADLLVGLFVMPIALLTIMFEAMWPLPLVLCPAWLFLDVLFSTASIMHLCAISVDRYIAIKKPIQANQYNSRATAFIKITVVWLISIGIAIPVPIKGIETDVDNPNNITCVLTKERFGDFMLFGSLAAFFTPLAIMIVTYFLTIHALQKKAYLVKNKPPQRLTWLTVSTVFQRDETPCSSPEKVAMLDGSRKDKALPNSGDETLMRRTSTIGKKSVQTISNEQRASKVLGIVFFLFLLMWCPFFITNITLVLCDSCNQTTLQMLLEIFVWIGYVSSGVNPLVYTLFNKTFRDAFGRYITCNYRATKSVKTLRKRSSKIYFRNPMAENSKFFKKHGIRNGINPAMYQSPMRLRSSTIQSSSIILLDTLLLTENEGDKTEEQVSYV
compound,measurement,setting,value
CS(=O)(=O)c1ccc(Oc2cc(F)cc(C#N)c2)c2c1[C@H](O)[C@H](F)[C@@H]2F [BELZUTIFAN],Activity,[1],inactive
same,Activity,[2],inactive
same,clearance,[3],21 mL/min/kg
same,concentration at 24 h,[4],60 ng/mL
same,concentration at 24 h,[5],710 ng/mL
same,Activity,[6],inactive
same,Activity,[7],inactive
same,Activity,[8],inactive
same,Activity,[9],inactive
same,half-life,[10],14.1 h
same,concentration at 24 h,[11],490 ng/mL
same,Activity,[12],inactive
same,AUClast/dose,[13],37 µM·h
same,half-life,[14],14 h
same,"fraction unbound at 4 h, 10 µM",[15],0.48
same,Activity,[16],Not Active
same,Vd,[17],1.6 L/kg
same,Activity,[18],inactive
same,Activity,[19],inactive
same,AUClast/dose,[20],31 µM·h
same,Activity,[21],inactive
same,Activity,Homo sapiens [22],inactive
same,Activity,[23],inactive
same,Vd,[24],4.9 L/kg
same,Activity,[25],inactive
same,Activity,[26],inactive
same,Activity,[27],Not Active
same,Activity,[28],inactive
same,Activity,[29],inactive
same,clearance,[30],19 mL/min/kg
same,Activity,[31],Not Active
same,Activity,[32],inactive
same,Activity,[33],inactive
same,Activity,Homo sapiens [34],inactive
same,Activity,[35],inactive
same,Activity,[36],inactive
same,inhibition (INH),Cytochrome P450 1A2,Not Active
same,Activity,[37],inactive
same,Activity,[38],inactive
same,"Km at 1 h, up to 1000 µM",UGT2B17,15 µM
